For experiment [1], the target named is T1, MCL-1 (Homo sapiens, UniProt Q07820). Description: biochemical.
For experiment [2], the target named is T1, MCL-1. The conditions noted are these: IC50 HRK/MCL-1 divided by IC50 HRK/BCL-xL.
The target of a further experiment is T2, BCL-xL (Homo sapiens, UniProt Q07817, DEL27-82).
T2 construct: BCL-2, 1-209; His-SUMO (N, cleaved yes); made in house; host or cells: E. coli BL21
Kind of experiment: Direct FA titration of FAM-labelled tracer with BCL-xL. In kind it is binding. The conditions noted are these: FAM-Ahx-Beclin-1 150 nM, BCL-xL 6 nM-125 μM, 25 mM Tris, 150 mM NaCl, pH 7.4, 20 °C.

*1 amine or outer side, *2 acyl side, *3 side chain or, on linkers, in order; H or OH if unused. Where a SMILES comes first, the peptide text is derived from it. Bridges are numbered along the chain shown (N, C = ends). [ ]: non-standard residue; d: D form. The star is where a group is joined. 5FAM = O=C1OC2(c3ccc(O)cc3Oc3cc(O)ccc32)c2ccc(C(=O)*)cc21; Maleimide(3,4-diyl) = O=C1NC(=O)C([*:2])=C1[*:1]; Nle = CCCC[C@H](N)C(=O)O; Ahx = NCCCCCC(=O)O

The term IC50 denotes the concentration needed to halve the response being measured. A high value points to a need for much substance. Usually Kd stands for the concentration at which binding is half-saturated. A low value points to higher affinity.

T1 sequence (Q07820 172-327): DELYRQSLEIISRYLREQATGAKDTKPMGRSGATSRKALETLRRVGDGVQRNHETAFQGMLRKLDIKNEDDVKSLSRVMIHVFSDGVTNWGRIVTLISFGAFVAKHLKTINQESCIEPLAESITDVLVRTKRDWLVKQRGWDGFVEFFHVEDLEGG
T2 sequence (Q07817 with tags, fused parts or gaps DEL27-82): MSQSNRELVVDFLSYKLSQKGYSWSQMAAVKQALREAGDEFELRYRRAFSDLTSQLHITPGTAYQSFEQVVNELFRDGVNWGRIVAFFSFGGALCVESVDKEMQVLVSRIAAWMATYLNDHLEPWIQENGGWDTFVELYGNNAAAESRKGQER

Ac-SAAQLYAARLKAFGDEFHQ-NH2 [HRK-hybrid] showed a half-inhibitory concentration (IC50) on MCL-1 [1] of more than 50 µM. Besides, at MCL-1 [2], the “IC50 ratio MCL-1 : BCL-xL (selectivity index)” value was more than 55.5. On MCL-1 [1], Ac-SAAQLTAARLKALGDELHQ-NH2 [HRK-s] gave an IC50 of more than 50 µM. The “IC50 ratio MCL-1 : BCL-xL (selectivity index)” value on MCL-1 [2] was more than 2.3.

Ac-SAAQLLAARLKALGDELHQ-NH2 [HRK-4]: it took 3.5 ± 1.2 µM to reach half-maximal inhibition on MCL-1 [1] (IC50). Also, on MCL-1 [2], the “IC50 ratio MCL-1 : BCL-xL (selectivity index)” value turned out to be 2.5. In the same order, the values of Ac-SAAQLYAARLKALGDEFHQ-NH2 [HRK-2] are more than 50 µM and more than 45.4.

The compound `CC[C@H](C)[C@H](NC(=O)[C@H](CC(=O)O)NC(=O)[C@H](Cc1ccccc1)NC(=O)[C@H](CC(C)C)NC(=O)[C@H](CC(=O)O)NC(=O)CNC(=O)[C@@H](NC(=O)[C@@H](NC(=O)[C@H](CCCCN)NC(=O)[C@H](CC(C)C)NC(=O)[C@H](CCCNC(=N)N)NC(=O)[C@H](CCCNC(=N)N)NC(=O)[C@H](CO)NC(=O)[C@H](CC(C)C)NC(=O)[C@H](CC(N)=O)NC(=O)[C@H](CCC(=O)O)NC(=O)[C@H](CCSC)NC(=O)[C@@H](NC(=O)CCCCCNC(=O)c1ccc2c(c1)C(=O)OC21c2ccc(O)cc2Oc2cc(O)ccc21)[C@@H](C)O)C(C)C)[C@@H](C)O)C(=O)N[C@@H](CCSC)C(=O)N[C@@H](CO)C(N)=O` [FAM-Ahx-Beclin-1] ({5FAM-Ahx}-TMENLSRRLKVTGDLFDIMS-NH2) showed a Kd on BCL-xL of 9.7 ± 2.3 µM. Take `CCCC[C@H](NC(=O)[C@H](C)NC(=O)[C@H](CCCCN)NC(=O)[C@H](CC(C)C)NC(=O)[C@H](CCCNC(=N)N)NC(=O)[C@H](C)NC(=O)[C@H](C)NC(=O)[C@H](Cc1ccc(O)cc1)NC(=O)[C@H](CC(C)C)NC(=O)[C@H](CCC(N)=O)NC(=O)[C@H](C)NC(=O)[C@H](C)NC(=O)[C@H](CO)NC(C)=O)C(=O)NCC(=O)N[C@@H](CC(=O)O)C(=O)N[C@@H](CCC(=O)O)C(=O)N[C@@H](Cc1ccccc1)C(=O)N[C@@H](Cc1c[nH]cn1)C(=O)N[C@@H](CCC(N)=O)C(N)=O` [HRK-3] (Ac-SAAQLYAARLKA[Nle]GDEFHQ-NH2): on MCL-1 [1], the IC50 was more than 50 µM. Regarding `CC(=O)N[C@@H](CO)C(=O)N[C@@H](C)C(=O)N[C@@H](C)C(=O)N[C@@H](CCC(N)=O)C(=O)N[C@@H](CC(C)C)C(=O)N[C@@H](Cc1ccc(O)cc1)C(=O)N[C@@H](C)C(=O)N[C@@H](CS)C(=O)N[C@@H](CCCNC(=N)N)C(=O)N[C@@H](CC(C)C)C(=O)N[C@@H](CCCCN)C(=O)N[C@@H](CS)C(=O)N[C@@H](Cc1ccccc1)C(=O)NCC(=O)N[C@@H](CC(=O)O)C(=O)N[C@@H](CCC(=O)O)C(=O)N[C@@H](Cc1ccccc1)C(=O)N[C@@H](Cc1c[nH]cn1)C(=O)N[C@@H](CCC(N)=O)C(N)=O` [HRKC4H] (Ac-SAAQLYACRLKCFGDEFHQ-NH2), the IC50 at MCL-1 [1] was more than 50 µM. In addition, at MCL-1 [2], the “IC50 ratio MCL-1 : BCL-xL (selectivity index)” value is more than 2.5.

“Ac-RYGRELRRMSDEFVDSFKK-NH2 [BAD-s, reference compound]” had an IC50 at MCL-1 [1] of more than 50 µM. In turn, Ac-SAAQLYAARLKALGDELHQ-NH2 [HRK-1] gave an IC50 at MCL-1 [1] of more than 50 µM. Further, on MCL-1 [2], the “IC50 ratio MCL-1 : BCL-xL (selectivity index)” value was more than 5.8. In the same order, the values of `CC(=O)N[C@@H](CO)C(=O)N[C@@H](C)C(=O)N[C@@H](C)C(=O)N[C@@H](CCC(N)=O)C(=O)N[C@@H](CC(C)C)C(=O)N[C@@H](Cc1ccc(O)cc1)C(=O)N[C@@H](C)C(=O)N[C@H]1CSC2=C(SC[C@@H](C(=O)N[C@@H](Cc3ccccc3)C(=O)NCC(=O)N[C@@H](CC(=O)O)C(=O)N[C@@H](CCC(=O)O)C(=O)N[C@@H](Cc3ccccc3)C(=O)N[C@@H](Cc3c[nH]cn3)C(=O)N[C@@H](CCC(N)=O)C(N)=O)NC(=O)[C@H](CCCCN)NC(=O)[C@H](CC(C)C)NC(=O)[C@H](CCCNC(=N)N)NC1=O)C(=O)NC2=O` [HRKS4H] (Ac-SAAQLYACRLKCFGDEFHQ-NH2; linker 8-12 via Maleimide(3,4-diyl)) are more than 50 µM and more than 5.9. On to `CSCC[C@H](NC(=O)[C@@H](NC(=O)[C@H](CCCNC(=N)N)NC(=O)[C@H](CCC(N)=O)NC(=O)[C@H](Cc1c[nH]cn1)NC(=O)[C@H](CC(C)C)NC(=O)[C@H](CCC(=O)O)NC(=O)[C@H](CC(=O)O)NC(=O)CNC(=O)[C@H](CC(C)C)NC(=O)[C@H](CS)NC(=O)[C@H](CCCCN)NC(=O)[C@H](CC(C)C)NC(=O)[C@H](CCCNC(=N)N)NC(=O)[C@H](CS)NC(=O)[C@H](C)NC(=O)[C@@H](NC(=O)[C@H](CC(C)C)NC(=O)[C@H](CCC(N)=O)NC(=O)[C@H](C)NC(=O)[C@H](C)NC(=O)[C@H](CO)NC(C)=O)[C@@H](C)O)[C@@H](C)O)C(=O)N[C@@H](Cc1c[nH]c2ccccc12)C(N)=O` [HRKC4] (Ac-SAAQLTACRLKCLGDELHQRTMW-NH2), for which, at MCL-1 [1], the IC50 is 3.9 ± 0.2 µM. As for `CSCC[C@H](NC(=O)[C@H](CCCNC(=N)N)NC(=O)[C@H](CCCNC(=N)N)NC(=O)[C@H](CC(C)C)NC(=O)[C@H](CCC(=O)O)NC(=O)[C@H](CCCNC(=N)N)NC(=O)CNC(=O)[C@H](Cc1ccc(O)cc1)NC(=O)[C@H](CCCNC(=N)N)NC(=O)[C@H](CCC(N)=O)NC(=O)[C@H](C)NC(=O)[C@H](C)NC(=O)[C@H](Cc1c[nH]c2ccccc12)NC(=O)[C@H](CC(C)C)NC(=O)[C@H](CC(N)=O)NC(C)=O)C(=O)N[C@@H](CO)C(=O)N[C@@H](CC(=O)O)C(=O)N[C@@H](CCC(=O)O)C(=O)N[C@@H](Cc1ccccc1)C(=O)N[C@H](C(=O)N[C@@H](CC(=O)O)C(=O)N[C@@H](CO)C(=O)N[C@@H](Cc1ccccc1)C(=O)N[C@@H](CCCCN)C(=O)N[C@@H](CCCCN)C(N)=O)C(C)C` [BAD-wt, reference compound], the IC50 against MCL-1 [1] is more than 50 µM. As to Ac-SAAQLLAARLKAFGDEFHQ-NH2 [HRK-5], on MCL-1 [1], inhibition was half-maximal at 16 ± 4.4 µM (IC50). Also, on MCL-1 [2], the “IC50 ratio MCL-1 : BCL-xL (selectivity index)” value came to 16.0.
